Results taken from US7683055B2, “Lanthionine-related compounds for the treatment of inflammatory diseases” (Oklahoma Medical Research Foundation, priority 2006, dated 2010).

Assays:
EOC-20 microglia = test: TNFα-stimulated nitrite production in EOC-20 microglia (Griess assay); type: cell-based, mouse
Procedure: (§1) Mouse EOC-20 microglia (American Tissue Type Collection, Gaithersville Md. USA) (Hensley et al., 2003; Walker et al., 1995) were grown in DMEM containing 20% L929 fibroblast-supplemented medium. Nitrite production by cytokine stimulated microglia was measured in cell culture medium using the Griess diazotization reaction as previously reported (Hensley et al., 2003; West et al., 2004).
The efficacy of (R)-LKE1 and (R)-LK as inhibitors of microglial cell activation in response to pro-inflammatory cytokines is shown in FIGS. 1A & 1B. EOC-20 murine microglial cells were pretreated 30 minutes with test compounds (e.g. (R)-LK or (R)-LKE1) dissolved in DMSO and diluted 1:200 into cell culture medium; or with DMSO vehicle only. Cells were then challenged with cytokine and allowed to incubate undisturbed in the cell culture incubator for 24 h prior to Griess assay. The lanthionine ketimine ester in this case is the structure shown above as (R)-LKE1. After drug treatment cells were then stimulated with 40 ng/mL recombinant murine tumor necrosis factor alpha (TNF α) plus 50U/mL interferon gamma (IFNγ). Nitrite (NO2^−) was measured in the cell culture medium 24 hours later, as an index of nitric oxide production. Cell viability was then assayed in the same cultures using a commercially available tetrazolium reduction assay (Promega OneStep™; Promega, Gaithersburg Md.). Cell culture methods were those published by the inventor (Hensley et al., 2003; West et al., 2004).
In a EOC-20 microglial assay the cells were stimulated with TNFα in the presence or absence of 100 microM (R)- or (S)-LK, and nitrite was measured 24 h later, the net suppression of nitrite was 13% by (S)-LK and 15% by (R)-LK.
The reduced lanthionine ketimine (i.e., TMDCA) was also tested against TNFα-stimulated nitrite production in the EOC-20 screen.

EOC-20 microglial cells = test: LPS-stimulated nitrite production in EOC-20 microglia; type: cell-based, mouse
Procedure: In some embodiments, the compounds of the invention function is a cell-type specific, stimulus-specific, or condition-specific fashion. […] In contrast, when EOC-20 cells or RAW264.7 macrophages were stimulated with bacterial lipopolysaccharide (LPS; E. coli serotype 0127:B8) for 24-48 h and nitrite and cell viability were assessed. LKE inhibited cytokine-induced nitrite accumulation with a similar efficacy in both cell types (see FIGS. 9A & 9B).
as §1

Htt+ astroglia = test: LPS-stimulated NO2- production in Htt+ astroglia; type: cell-based, mouse; settings: LPS serotype 0127:B8
Procedure: Primary astrocytes were cultured from neonatal R6/2 transgenic mouse pups (“Htt+”) which are the standard murine model for Huntington's disease (animals commercially obtained from Jackson Labs) or nontransgenic littermates. For RAW cell studies, RAW264.7 macrophages were obtained commercially from American Type Culture Collection. RAW 264.7 macrophages were grown in DMEM plus 10% FBS and 1% Pen/Strep. Cells were maintained in culture according to published methods. Cells were treated with +/−[…] bacterial lipopolysaccharide serotype 0127:B8 (Sigma Chemical)+/−various concentrations of (R)-LKE1 for 24-48 h. (R)-LKE1 was added 30 minutes prior to LPS challenge. Nitrite was measured in the cell culture medium using the Griess diazotization assay. Cells were lysed and Western blots performed for protein expression or in other experiments for ribonuclease protection assays.

NSC-34 cells = test: NSC-34 viability in cytokine-conditioned EOC-20 microglial medium (tetrazolium reduction); type: cell-based, mouse
Procedure: In the second cytotoxicity paradigm, the inventor has also shown that the compounds and methods of this invention diminish the toxicity of microglia-conditioned medium toward NSC-34 cells. NSC-34 cells were treated with conditioned medium taken from EOC-20 cells that had been stimulated for 24 h with 50 U/mL IFNγ plus […] TNFα. This cytokine-conditioned EOC-20 medium is toxic to NSC-34 cells, whereas the same cytokine mixture added directly to NSC-34 cells is not toxic (data not shown). Medium from unstimulated EOC-20 cells is likewise nontoxic (data not shown). The toxic factor in the cytokine-stimulated EOC-20 cell conditioned medium was not identified. […] The concentration of (R)-LKE1 necessary to achieve half-maximal protective efficacy in this case was less than 1 μM (FIG. 3).
(R)-LKE1 protects NSC-34 motoneuron hybridoma cells from microglial-derived neurotoxic products (FIG. 3). EOC-20 microglia were stimulated with 50 U/mL IFNγ plus 20ng/mL TNFα for 24 hours, and cytokine-conditioned medium (CM) was collected. NSC-34 cells (2 days post-passage) were treated with the indicated concentration of (R)-LKE1 for 2.5 hours after which 50% of the medium was replaced with CM. […] After 48 hours, viability of NSC-34 cultures was assessed by tetrazolium reduction assay using a commercially available kit (Promega Aqueous OneStep®).

[1] = tested on: SHSY5Y dopaminergic neuroblastoma cells; test: rotenone toxicity in SHSY5Y cells; type: cell-based; settings: 30 min pretreatment
Procedure: FIG. 15. (R)-LKE1 protects SHSY5Y dopaminergic neuroblastoma cells against rotenone toxicity. In this experiment SHSY5Y cultures were treated with (R)-LKE1 for 30 min. prior to addition of rotenone, then assayed for viability at various later time points. The percent change in 24 hour cell viability was measured in the presence and absence of (R)-LKE1 at difference rotenone concentrations. “LKE” refers to (R)-LKE1.
For example, the methods and compounds of present invention are expected to by useful for treating Parkinson's disease in an individual. […] In this experiment SHSY5Y cultures were treated with (R)-LKE1 for 30 min. prior to addition of rotenone, then assayed for viability at various later time points.

[2] = tested on: mice treated with E. coli LPS 0127:B8; test: LPS sepsis mouse model, viability; type: in vivo; settings: for Dead/alive: 40 mg/kg LPS + 100 mg/kg i.p. daily
Procedure: Six mice were treated with 40 mg/kg E. coli LPS 0127:B8 and co-treated with 100 mg/kg (R)-LKE1 i.p., daily. Viability was compared to a control group, receiving only LPS.

Structure (SMILES): CCOC(=O)[C@@H]1CSCC(C(=O)O)=N1 [(R)-LKE1]
- potency at suppressing cytokine activation relative to unesterified lanthionine ketimine (EOC-20 microglia; FIG. 1A): statistically significantly more potent
- inhibition of nitrite production (EOC-20 microglia; TNFα-stimulated EOC-20 microglia): inhibited nitrite production
- cytotoxicity (cell viability) (EOC-20 microglial cells; EOC-20 cells or RAW264.7 macrophages, LPS 24-48 h): No cytotoxicity was observed
- inhibition of LPS-stimulated nitric oxide production (EOC-20 microglial cells; EOC-20 microglial cells, LPS): inhibited LPS stimulated nitric oxide production
- NO2- produced in response to LPS (Htt+ astroglia): reduce the amount of NO2^− produced
- EC50 (NSC-34 cells; Mus musculus, NSC-34, cytokine-conditioned EOC-20 medium, read-out: concentration necessary to achieve half-maximal protective efficacy): < 1000 nM
- mitigation of conditioned-medium toxicity (NSC-34 cells; co-treatment with conditioned medium): largely, but not completely mitigated
- protection from rotenone toxicity [1]: protecting SHSY5Y cells from rotenone toxicity
- Dead/alive ([2]; 0 h): 0/6
- Dead/alive ([2]; 18 h): 2/4
- Dead/alive ([2]; 36 h): 3/3
- Dead/alive ([2]; 48 h): 4/2
- Dead/alive ([2]; 72 h): 4/2
- chance of surviving the LPS model conditions ([2]; co-treated): higher chance of surviving
